From the CheMixHub viscosity set

Assay: xn = mol fraction of the nth substance listed

CCCCCCCO + c1ccccc1
viscosity [mPa·s], 100 kPa
Details | x2 = 0.0864 | x2 = 0.1561 | x2 = 0.2397 | x2 = 0.3469 | x2 = 0.4396 | x2 = 0.5661 | x2 = 0.6446 | x2 = 0.7517 | x2 = 0.8493 | x2 = 0.9561
293.15 K | 5.514 | 4.58 | 3.709 | 2.802 | 2.132 | 1.412 | 1.117 | 0.875 | 0.766 | 0.681
303.15 K | 3.992 | 3.302 | 2.668 | 2.018 | 1.568 | 1.053 | 0.859 | 0.703 | 0.625 | 0.573
313.15 K | 2.947 | 2.439 | 1.973 | 1.501 | 1.172 | 0.822 | 0.679 | 0.573 | 0.525 | 0.498
323.15 K | 2.279 | 1.918 | 1.573 | 1.203 | 0.942 | 0.665 | 0.556 | 0.479 | 0.442 | 0.437

OC1CCCCC1 + OCCO
viscosity [mPa·s], 100 kPa
Details | 293.15 K | 298.15 K | 303.15 K | 308.15 K | 313.15 K | 318.15 K
x1 = 0.0097 | 20.9 | 16.96 | 13.79 | 11.32 | 9.626 | 7.932
x1 = 0.0396 | 21.26 | 17.11 | 13.94 | 11.35 | 9.765 | 8.069
x1 = 0.058 | 21.37 | 17.21 | 14.04 | 11.44 | 9.849 | 8.139
x1 = 0.088 | 21.54 | 17.34 | 14.16 | 11.54 | 9.965 | 8.26
x1 = 0.1001 | 21.6 | 17.4 | 14.2 | 11.58 | 10 | 8.294
x1 = 0.1963 | 21.79 | 17.59 | 14.34 | 11.66 | 10.09 | 8.427
x1 = 0.3051 | 21.94 | 17.71 | 14.45 | 11.76 | 10.19 | 8.481
x1 = 0.397 | 22.13 | 17.96 | 14.66 | 12.02 | 10.42 | 8.606
x1 = 0.4994 | 23.25 | 18.43 | 15.1 | 12.54 | 10.71 | 8.723
x1 = 0.5878 | 26.46 | 20.22 | 16.33 | 12.82 | 11.32 | 9.179
x1 = 0.6994 | 31.25 | 23.24 | 18.88 | 14.44 | 12.15 | 9.912
x1 = 0.7971 | 38.27 | 28.43 | 22.87 | 17.78 | 14.34 | 11.34
x1 = 0.8978 | 53.55 | 38 | 28.77 | 22.38 | 17.93 | 13.99

CCCCC + CCCCCCCCC
298.15 K, 101.33 kPa
Details | viscosity [mPa·s]
x1 = 0.0925 | 0.611
x1 = 0.1995 | 0.5548
x1 = 0.308 | 0.5016
x1 = 0.403 | 0.4556
x1 = 0.4861 | 0.4179
x1 = 0.6016 | 0.3691
x1 = 0.702 | 0.3268
x1 = 0.8033 | 0.2892
x1 = 0.904 | 0.2538

CCCCC + CC(C)(C)O
viscosity [mPa·s], 101 kPa
Details | x1 = 0.1023 | x1 = 0.2048 | x1 = 0.3056 | x1 = 0.407 | x1 = 0.5068 | x1 = 0.606 | x1 = 0.7043 | x1 = 0.8042 | x1 = 0.902
293.15 K | 1.891 | 1.128 | 0.88 | 0.771 | 0.657 | 0.485 | 0.373 | 0.32 | 0.281
303.15 K | 1.992 | 1.162 | 1.011 | 1.064 | 0.954 | 0.769 | 0.616 | 0.49 | 0.36
313.15 K | 1.996 | 1.211 | 1.298 | 1.282 | 1.182 | 1.012 | 0.832 | 0.625 | 0.455

C1CCCCCCC1 + c1ccccc1
303.15 K, 101 kPa
Details | viscosity [mPa·s]
x1 = 0.1002 | 0.5993
x1 = 0.2 | 0.6484
x1 = 0.2967 | 0.7078
x1 = 0.3983 | 0.788
x1 = 0.4982 | 0.8861
x1 = 0.6999 | 1.179
x1 = 0.8961 | 1.654

CCCCC + CCCO
298.15 K, 101.33 kPa
Details | viscosity [mPa·s]
x2 = 0.0291 | 0.242
x2 = 0.0777 | 0.256
x2 = 0.1952 | 0.29
x2 = 0.3332 | 0.357
x2 = 0.403 | 0.41
x2 = 0.4771 | 0.484
x2 = 0.6076 | 0.666
x2 = 0.7373 | 0.949
x2 = 0.8545 | 1.333
x2 = 0.9586 | 1.778

CC(C)CC(C)O (stereo not given) + CCO
298.15 K, 101.33 kPa
Details | viscosity [mPa·s]
x2 = 0.1103 | 3.682
x2 = 0.2012 | 3.495
x2 = 0.3207 | 3.131
x2 = 0.4152 | 2.817
x2 = 0.5152 | 2.487
x2 = 0.6098 | 2.16
x2 = 0.7078 | 1.883
x2 = 0.8008 | 1.6
x2 = 0.8981 | 1.342
